Measured values taken from patent publication US20240382483A1, “HETEROCYCLIC EGFR INHIBITORS FOR USE IN THE TREATMENT OF CANCER” (Blueprint Medicines Corporation, priority 2021, published 2024).

How the values were obtained:
[1] = biological target: T1, intracellular phosphorylation of EGFR in NCI-H1975 cell line that harbors the EGFR L858R T790M mutations (Homo sapiens, UniProt P00533, L858R/T790M); experiment: NCI-H1975 pEGFR AlphaLISA assay; assay type: cell-based; conditions: NCI-H1975 cells (EGFR L858R T790M), p-EGFR (Tyr1068), 4-5 hours incubation; read-out: Ext pEGFR H1975 GMean IC50 (nM) Protocol: @Pharmaron AlphaLISA (Num)
T1 construct: NCI-H1975 cell line that harbors the EGFR L858R T790M mutations (ATCC, CRL-5908); host or cells: NCI-H1975
T1 sequence (P00533 25-1210 T790M/L858R): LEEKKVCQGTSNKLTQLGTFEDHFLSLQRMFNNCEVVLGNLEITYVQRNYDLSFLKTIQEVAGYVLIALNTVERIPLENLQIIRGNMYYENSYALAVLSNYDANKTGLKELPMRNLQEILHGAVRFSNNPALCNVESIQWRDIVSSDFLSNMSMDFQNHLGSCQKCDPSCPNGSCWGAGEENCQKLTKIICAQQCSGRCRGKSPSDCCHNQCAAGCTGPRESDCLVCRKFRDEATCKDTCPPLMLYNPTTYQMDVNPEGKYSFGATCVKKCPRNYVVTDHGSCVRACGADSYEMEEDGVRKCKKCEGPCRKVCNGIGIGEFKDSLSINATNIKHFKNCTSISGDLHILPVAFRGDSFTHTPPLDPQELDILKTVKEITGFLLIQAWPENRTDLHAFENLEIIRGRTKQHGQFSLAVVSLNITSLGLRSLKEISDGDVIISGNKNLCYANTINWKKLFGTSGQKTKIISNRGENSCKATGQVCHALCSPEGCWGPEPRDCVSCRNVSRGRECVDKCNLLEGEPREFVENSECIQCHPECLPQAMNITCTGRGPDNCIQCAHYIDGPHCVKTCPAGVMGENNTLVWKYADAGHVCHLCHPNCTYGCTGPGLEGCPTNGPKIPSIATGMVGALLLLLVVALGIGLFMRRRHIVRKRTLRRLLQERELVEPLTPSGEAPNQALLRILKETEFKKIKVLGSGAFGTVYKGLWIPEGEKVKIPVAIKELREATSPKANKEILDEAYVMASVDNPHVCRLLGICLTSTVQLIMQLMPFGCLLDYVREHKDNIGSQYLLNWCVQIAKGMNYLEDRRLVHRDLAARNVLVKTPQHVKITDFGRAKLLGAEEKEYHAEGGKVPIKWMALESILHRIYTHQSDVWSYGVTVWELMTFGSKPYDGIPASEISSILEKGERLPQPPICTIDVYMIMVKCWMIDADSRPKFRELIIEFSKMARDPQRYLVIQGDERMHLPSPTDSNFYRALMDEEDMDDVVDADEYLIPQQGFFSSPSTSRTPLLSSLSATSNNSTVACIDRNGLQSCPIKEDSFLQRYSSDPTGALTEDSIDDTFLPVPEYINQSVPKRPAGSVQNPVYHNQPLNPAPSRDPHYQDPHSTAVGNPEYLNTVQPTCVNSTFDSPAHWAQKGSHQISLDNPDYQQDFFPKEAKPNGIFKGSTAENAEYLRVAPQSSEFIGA
Protocol: On the next day, the test compounds and DMSO control were added into H1975 cell plate followed by incubation at 37C/5% CO2 for 4-5 hours. […] Then 5 μL of a donor bead mix was added to each well followed by overnight incubation at room temperature in dark. On the next day, the plate was read at a compatible plate reader to obtain pEGFR signal. Percent of pEGFR inhibition was plotted against log concentration of compounds to generate IC50 values.

EGFR (L858R T790M C797S) = biological target: T2, EGFR (L858R T790M C797S) (Homo sapiens, UniProt P00533, C797S/L858R/T790M); experiment: Biochemical EGFR inhibition assay (Caliper mobility shift), EGFR LRTMCS; conditions: LRTMCS (PH) IC50 (nM) @ 1 mM ATP (Num), EGFR LRTMCS mutant
T2 construct: purchased SignalChem E10-122VG
T2 sequence (P00533 25-1210 T790M/C797S/L858R): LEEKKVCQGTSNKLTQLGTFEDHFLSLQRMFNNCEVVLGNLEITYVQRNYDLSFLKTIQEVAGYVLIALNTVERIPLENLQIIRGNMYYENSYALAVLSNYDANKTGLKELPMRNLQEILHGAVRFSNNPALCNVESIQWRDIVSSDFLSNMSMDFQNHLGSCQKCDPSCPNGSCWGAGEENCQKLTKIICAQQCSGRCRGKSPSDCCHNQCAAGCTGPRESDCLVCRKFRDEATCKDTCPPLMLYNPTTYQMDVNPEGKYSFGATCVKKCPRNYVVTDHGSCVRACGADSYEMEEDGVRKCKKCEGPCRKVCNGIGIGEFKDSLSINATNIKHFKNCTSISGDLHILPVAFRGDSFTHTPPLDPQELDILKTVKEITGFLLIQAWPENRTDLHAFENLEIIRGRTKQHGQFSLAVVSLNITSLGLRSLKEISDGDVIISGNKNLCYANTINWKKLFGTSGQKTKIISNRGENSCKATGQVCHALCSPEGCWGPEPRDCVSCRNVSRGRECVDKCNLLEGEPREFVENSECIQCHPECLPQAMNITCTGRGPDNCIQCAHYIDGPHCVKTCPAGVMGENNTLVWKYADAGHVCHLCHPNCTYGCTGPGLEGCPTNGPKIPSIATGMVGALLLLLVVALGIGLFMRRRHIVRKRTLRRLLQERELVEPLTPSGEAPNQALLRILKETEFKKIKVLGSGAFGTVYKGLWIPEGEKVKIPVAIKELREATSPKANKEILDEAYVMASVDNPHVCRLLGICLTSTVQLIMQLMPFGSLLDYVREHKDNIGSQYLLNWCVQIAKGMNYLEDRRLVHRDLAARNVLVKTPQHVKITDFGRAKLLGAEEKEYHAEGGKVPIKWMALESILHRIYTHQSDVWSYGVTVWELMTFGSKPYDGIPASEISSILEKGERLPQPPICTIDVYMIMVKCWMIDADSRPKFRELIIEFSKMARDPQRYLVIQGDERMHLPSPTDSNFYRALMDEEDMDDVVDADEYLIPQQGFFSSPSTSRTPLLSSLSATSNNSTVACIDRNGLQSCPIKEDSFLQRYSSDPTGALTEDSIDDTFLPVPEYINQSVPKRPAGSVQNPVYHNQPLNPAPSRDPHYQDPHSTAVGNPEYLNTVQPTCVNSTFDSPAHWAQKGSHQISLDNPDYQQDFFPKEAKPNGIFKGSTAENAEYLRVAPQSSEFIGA
Outline: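 Caliper mobility shift read-out: product and substrate peptides separated by electrophoresis and quantified. Reactions at 25° C. taken to 10–20% peptide phosphorylation, quenched with 35 mM EDTA. Apparent IC50 from percent activity vs log [compound].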

SMILES | IC50 [1] [nM] | IC50 (EGFR (L858R T790M C797S)) [nM]
C[C@@H]1CCN1c1ncc([C@@H](C)OCC2COC2)c2cc(Nc3ccnc(N4CC[C@@H](O)[C@@](C)(F)C4)n3)ncc12 (single isomer, unassigned) [Example 183, (3S,4R)-3-fluoro-3-methyl-1-(4-((8-((R)-2-methylazetidin-1-yl)-5-((R)-1-(oxetan-3-ylmethoxy)ethyl)-2,7-naphthyridin-3-yl)amino)pyrimidin-2-yl)piperidin-4-ol or (3S,4R)-3-fluoro-3-methyl-1-(4-((8-((R)-2-methylazetidin-1-yl)-5-((S)-1-(oxetan-3-ylmethoxy)ethyl)-2,7-naphthyridin-3-yl)amino)pyrimidin-2-yl)piperidin-4-ol] | > 50 | 30 to 100
CO[C@H]1CN(c2ncc([C@@H](C)CO)c3cc(Nc4ccnc(N5CC[C@@H](O)[C@@](C)(F)C5)n4)ncc23)[C@@H]1C (single isomer, unassigned) [Example 211, (3S,4R)-3-fluoro-1-(4-((5-((R)-1-hydroxypropan-2-yl)-8-((2R,3S)-3-methoxy-2-methylazetidin-1-yl)-2,7-naphthyridin-3-yl)amino)pyrimidin-2-yl)-3-methylpiperidin-4-ol or (3S,4R)-3-fluoro-1-(4-((5-((S)-1-hydroxypropan-2-yl)-8-((2R,3S)-3-methoxy-2-methylazetidin-1-yl)-2,7-naphthyridin-3-yl)amino)pyrimidin-2-yl)-3-methylpiperidin-4-ol] | > 50 | 30 to 100
CC(C)c1cnc(N2CC(O)C2)c2cnc(Nc3ccnc(N4CC[C@@]5(CCO5)C(F)(F)C4)n3)cc12 (single isomer, unassigned) [Example 146, (R)-1-(6-((2-(5,5-difluoro-1-oxa-7-azaspiro[3.5]nonan-7-yl)pyrimidin-4-yl)amino)-4-isopropyl-2,7-naphthyridin-1-yl)azetidin-3-ol or (S)-1-(6-((2-(5,5-difluoro-1-oxa-7-azaspiro[3.5]nonan-7-yl)pyrimidin-4-yl)amino)-4-isopropyl-2,7-naphthyridin-1-yl)azetidin-3-ol] | 30 to 50 | < 15
COCC1CN(c2ncc(C(C)C)c3cc(Nc4ccnc(N5CC[C@@H](O)[C@@](C)(F)C5)n4)ncc23)C1 [Example 66, (3S,4R)-3-fluoro-1-(4-((5-isopropyl-8-(3-(methoxymethyl)azetidin-1-yl)-2,7-naphthyridin-3-yl)amino)pyrimidin-2-yl)-3-methylpiperidin-4-ol] | 30 to 50 | 20 to 30
CC(C)c1cnc(-c2nc[nH]n2)c2cnc(Nc3ccnc(N4CC[C@@H](O)[C@@](C)(F)C4)n3)cc12 [Example 25, (3S,4R)-3-fluoro-1-(4-((5-isopropyl-8-(1H-1,2,4-triazol-3-yl)-2,7-naphthyridin-3-yl)amino)pyrimidin-2-yl)-3-methylpiperidin-4-ol] | 30 to 50 | 15 to 20
CC(C)c1cnc(N2CC[C@H]2C)c2cnc(Nc3cnnc(N4CC[C@@H](O)[C@@](C)(F)C4)n3)cc12 (single isomer, unassigned) [Example 179, (3S,4R)-3-fluoro-1-(5-((5-isopropyl-8-((R)-2-methylazetidin-1-yl)-2,7-naphthyridin-3-yl)amino)-1,2,4-triazin-3-yl)-3-methylpiperidin-4-ol or (3R,4S)-3-fluoro-1-(5-((5-isopropyl-8-((R)-2-methylazetidin-1-yl)-2,7-naphthyridin-3-yl)amino)-1,2,4-triazin-3-yl)-3-methylpiperidin-4-ol] | 10 to 20 | < 15
CC(C)c1cnc(N2CC(N=S(C)(C)=O)C2)c2cnc(Nc3ccnc(N4CC[C@@H](O)[C@@](C)(F)C4)n3)cc12 [Example 94, ((1-(6-((2-((3S,4R)-3-fluoro-4-hydroxy-3-methylpiperidin-1-yl)pyrimidin-4-yl)amino)-4-isopropyl-2,7-naphthyridin-1-yl)azetidin-3-yl)imino)dimethyl-l6-sulfanone] | 20 to 30 | < 15
CNC[C@@H]1CCCN1c1ncc(C(C)C)c2cc(Nc3ccnc(N4CC[C@@H](O)[C@@](C)(F)C4)n3)ncc12 [Example 197, (3S,4R)-3-fluoro-1-(4-((5-isopropyl-8-((S)-2-((methylamino)methyl)pyrrolidin-1-yl)-2,7-naphthyridin-3-yl)amino)pyrimidin-2-yl)-3-methylpiperidin-4-ol] | 30 to 50 | < 15
CO[C@H]1CCN(c2nccc(Nc3cc4c(C(C)C)ccc(N5C[C@H](c6nncn6C)[C@H]5C)c4cn3)n2)C[C@@H]1O (single isomer, unassigned) [Example 218] | 30 to 50 | < 15
CC(C)c1cnc(N2CC(CC(=O)N(C)C)C2)c2cnc(Nc3ccnc(N4CC[C@@H](O)[C@@](C)(F)C4)n3)cc12 [Example 86, 2-(1-(6-((2-((3S,4R)-3-fluoro-4-hydroxy-3-methylpiperidin-1-yl)pyrimidin-4-yl)amino)-4-isopropyl-2,7-naphthyridin-1-yl)azetidin-3-yl)-N,N-dimethylacetamide] | 30 to 50 | 20 to 30
CC(C)c1ncc(-c2ncn(C)n2)c2cnc(Nc3ccnc(N4CC[C@@H](O)[C@@](C)(F)C4)n3)cc12 [Example 6, (3S,4R)-3-fluoro-1-(4-((5-isopropyl-8-(1-methyl-1H-1,2,4-triazol-3-yl)-2,6-naphthyridin-3-yl)amino)pyrimidin-2-yl)-3-methylpiperidin-4-ol] | > 50 | < 15

Continued, values first:

IC50 [1] [nM] | IC50 (EGFR (L858R T790M C797S)) [nM] | SMILES
> 50 | < 15 | CC(C)c1cnc(N2CCC23CNC3)c2cnc(Nc3ccnc(N4CC[C@@H](O)[C@@](C)(F)C4)n3)cc12 [Example 190, (3S,4R)-3-fluoro-1-(4-((5-isopropyl-8-(1,6-diazaspiro[3.3]heptan-1-yl)-2,7-naphthyridin-3-yl)amino)pyrimidin-2-yl)-3-methylpiperidin-4-ol]
20 to 30 | < 15 | CC(C)c1cnc(N2CCC(F)(F)C2)c2cnc(Nc3ccnc(N4CC[C@@H](O)[C@@](C)(F)C4)n3)cc12 [Example 57, (3S,4R)-1-(4-((8-(3,3-difluoropyrrolidin-1-yl)-5-isopropyl-2,7-naphthyridin-3-yl)amino)pyrimidin-2-yl)-3-fluoro-3-methylpiperidin-4-ol]
> 50 | 15 to 20 | CC(C)c1cnc(N2CC(F)(CO)C2)c2cnc(Nc3ccnc(N4CC[C@@H](O)[C@@](C)(F)C4)n3)cc12 [Example 67, (3S,4R)-3-fluoro-1-(4-((8-(3-fluoro-3-(hydroxymethyl)azetidin-1-yl)-5-isopropyl-2,7-naphthyridin-3-yl)amino)pyrimidin-2-yl)-3-methylpiperidin-4-ol]
> 50 | 20 to 30 | CC(C)c1cnc(N2CCCC2)c2cnc(Nc3ccnc(N4CC[C@@H](O)[C@@](C)(F)C4)n3)cc12 [Example 45, (3S,4R)-3-fluoro-1-(4-((5-isopropyl-8-(pyrrolidin-1-yl)-2,7-naphthyridin-3-yl)amino)pyrimidin-2-yl)-3-methylpiperidin-4-ol]
> 50 | 30 to 100 | CC(C)c1cnc(N2CC(C#N)(CO)C2)c2cnc(Nc3ccnc(N4CC[C@@H](O)[C@@](C)(F)C4)n3)cc12 [Example 73, 1-(6-((2-((3S,4R)-3-fluoro-4-hydroxy-3-methylpiperidin-1-yl)pyrimidin-4-yl)amino)-4-isopropyl-2,7-naphthyridin-1-yl)-3-(hydroxymethyl)azetidine-3-carbonitrile]
